Consider four molecules from US20190100534A1, “Cephem Compounds with Latent Reactive Groups” (Gladius Pharmaceuticals, Inc., priority 2017, published 2019).

What all share (assay type): cell-based
Test [1] concerns Pseudomonas aeruginosa (PA). Put plainly: MIC determination. The note with it: Pseudomonas aeruginosa; PA; CAMH broth, 20 μM Apo-Transferrin, 37° C., 18 hours; read-out: Minimum Inhibitory Concentrations, PA. Summed up: (§1)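 Values come from a visual broth microdilution read: the first transparent well at the lowest drug level defines MIC. Inocula were standardized to 0.5 McFarland units, and the medium was CAMH with 20 μM apo-transferrin. Plates incubated overnight, 18 h, at 37 °C.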

Test [2] relates to Pseudomonas aeruginosa PA (RR-1). Put plainly: MIC determination. The conditions noted are these: Pseudomonas aeruginosa; PA (RR-1); CAMH broth, 20 μM Apo-Transferrin, 37° C., 18 hours; read-out: Minimum Inhibitory Concentrations, PA (RR-1). The method in brief:
as §1

The subject of test [3] is Pseudomonas aeruginosa PA (RR-2). Put plainly: MIC determination. The conditions noted are these: Pseudomonas aeruginosa; PA (RR-2); CAMH broth, 20 μM Apo-Transferrin, 37° C., 18 hours; read-out: Minimum Inhibitory Concentrations, PA (RR-2). Summed up:
as §1

In test [4] the test system is Pseudomonas aeruginosa PA (URMC-2). In words: MIC determination. The conditions noted are these: Pseudomonas aeruginosa; PA (URMC-2); CAMH broth, 20 μM Apo-Transferrin, 37° C., 18 hours; read-out: Minimum Inhibitory Concentrations, PA (URMC-2). The method in brief:
as §1

Test [5] concerns Pseudomonas aeruginosa PA (URMC-3). In words: MIC determination. The note with it: Pseudomonas aeruginosa; PA (URMC-3); CAMH broth, 20 μM Apo-Transferrin, 37° C., 18 hours; read-out: Minimum Inhibitory Concentrations, PA (URMC-3). The method in brief:
as §1

Test [6] has as its system Pseudomonas aeruginosa PA-RR-(980151052). In words: MIC determination. The conditions noted are these: Pseudomonas aeruginosa; PA-RR-(980151052); CAMH broth, 20 μM Apo-Transferrin, 37° C., 18 hours; read-out: Minimum Inhibitory Concentrations, PA-RR-(980151052). Summed up:
as §1

The test system of test [7] is Pseudomonas aeruginosa PA-RR-(98023895). In words: MIC determination. The conditions noted are these: Pseudomonas aeruginosa; PA-RR-(98023895); CAMH broth, 20 μM Apo-Transferrin, 37° C., 18 hours; read-out: Minimum Inhibitory Concentrations, PA-RR-(98023895). Summed up:
as §1

The subject of test [8] is Pseudomonas aeruginosa PA-RR-(G7294437). In words: MIC determination. The note with it: Pseudomonas aeruginosa; PA-RR-(G7294437); CAMH broth, 20 μM Apo-Transferrin, 37° C., 18 hours; read-out: Minimum Inhibitory Concentrations, PA-RR-(G7294437). Summed up: as §1
In test [9] the test system is Pseudomonas aeruginosa PA-RR-(G7304100). Put plainly: MIC determination. The note with it: Pseudomonas aeruginosa; PA-RR-(G7304100); CAMH broth, 20 μM Apo-Transferrin, 37° C., 18 hours; read-out: Minimum Inhibitory Concentrations, PA-RR-(G7304100). The method in brief: as §1
For test [10], the system named is Pseudomonas aeruginosa PA-RR-(G7305586). Put plainly: MIC determination. The conditions noted are these: Pseudomonas aeruginosa; PA-RR-(G7305586); CAMH broth, 20 μM Apo-Transferrin, 37° C., 18 hours; read-out: Minimum Inhibitory Concentrations, PA-RR-(G7305586). The method in brief:
as §1

The next test relates to E. coli J53 Alone. In words: MIC determination, isogenic E. coli strains. The conditions noted are these: for MIC: Escherichia coli, J53ALONE, 18 h, read-out: Mimimum Inhibitory Concentrations, J53 Alone; for Mimimum Inhibitory Concentrations, J53 Alone: Table 4-2, CAMH broth, 20 μM Apo-Transferrin, 37° C., 18 hours. Summed up:
(§2)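 Broth microdilution in cation-adjusted Mueller-Hinton broth with 20 μM apo-transferrin, 2-fold compound series from 64 μg/mL. E. coli J53, alone or transformed with a pBC-SK(+) plasmid carrying the beta-lactamase gene (e.g. DHA-1), inoculated from 0.5 McFarland suspension; 18 h at 37° C; MIC = lowest concentration with clear well.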

Test [11] concerns Isogenic E. coli J58 strain carrying DHA-1. In words: MIC determination, isogenic E. coli strains. The note with it: Escherichia coli, 18 h, read-out: Mimimum Inhibitory Concentrations, DHA-1. The method in brief:
as §2

For test [12], the system named is Isogenic E. coli J58 strain carrying TEM-26. Put plainly: MIC determination, isogenic E. coli strains. The conditions noted are these: Escherichia coli, 18 h, read-out: Mimimum Inhibitory Concentrations, TEM-26. Summed up: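 Broth microdilution in cation-adjusted Mueller-Hinton broth with 20 μM apo-transferrin, compound […] in twofold steps, inoculum from 0.5 McFarland suspension. E. coli J53 transformed with pBC-SK(+) encoding TEM-26; 18 h at 37° C, MIC as lowest concentration giving a clear well.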

Test [13] has as its system Isogenic E. coli J58 strain carrying CTX-M-14. Put plainly: MIC determination, isogenic E. coli strains. The conditions noted are these: Escherichia coli, 18 h, read-out: Mimimum Inhibitory Concentrations, CTX-M-14. The method in brief: (§3)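 Isogenic E. coli J53 carrying plasmid-encoded CTX-M-14 or CTX-M-15 (ampicillin-selected), standardized to 0.08-0.1 OD600, incubated overnight (18 h, 37° C.) in CAMH broth plus 20 μM apo-transferrin over 2-fold compound dilutions starting at 64 μg/mL. Lowest concentration with no visible growth recorded as MIC.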

Test [14] concerns Isogenic E. coli J58 strain carrying CTX-M-15. In words: MIC determination, isogenic E. coli strains. The conditions noted are these: Escherichia coli, 18 h, read-out: Mimimum Inhibitory Concentrations, CTX-M-15. The method in brief: as §3
For test [15], the system named is Isogenic E. coli J58 strain carrying NDM-1. Put plainly: MIC determination, isogenic E. coli strains. The note with it: Escherichia coli, 18 h, read-out: Mimimum Inhibitory Concentrations, NDM-1. Summed up: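 E. coli J53 transformed with a pBC-SK(+) plasmid encoding NDM-1 was adjusted to 0.08-0.1 OD600. It was grown 18 h at 37° C in CAMH broth containing 20 μM apo-transferrin with twofold compound dilutions from 64 μg/mL. MIC was taken as the lowest concentration giving a transparent well.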

Test [16] has as its system Isogenic E. coli J58 strain carrying VIM-2. Put plainly: MIC determination, isogenic E. coli strains. The conditions noted are these: Escherichia coli, 18 h, read-out: Mimimum Inhibitory Concentrations, VIM-2. The method in brief: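 E. coli J53 transformed with pBC-SK(+) plasmid carrying synthesized VIM-2 gene, grown in LB to OD600 >0.1, adjusted to 0.08–0.1 OD600 in CAMH broth.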

Turning to `CC(C)(O/N=C(\C(=O)N[C@@H]1C(=O)N2C(C(=O)O)=C(C=Cc3ccc(C[N+]4(C)Cc5cc(O)c(O)cc5C4)cc3)CS[C@H]12)c1csc(N)n1)C(=O)O` (mixture of isomers) [Compound 424, 2-(4-((E/Z)-2-((6R,7R)-7-((Z)-2-(2-aminothiazol-4-yl)-2-(((2-carboxypropan-2-yl)oxy)imino)acetamido)-2-carboxy-8-oxo-5-thia-1-azabicyclo[4.2.0]oct-2-en-3-yl)vinyl)benzyl)-5,6-dihydroxy-2-methylisoindolin-2-ium], the MIC came to 2 µg/mL in [1]; 4 µg/mL in test [2]; 4 µg/mL in [3]; 4 µg/mL in test [4]; 0.13 µg/mL in test [5]; 4 µg/mL in test [6]. For the same molecule, the MIC in test [7] was 8 µg/mL; in [8], 0.25 µg/mL; in test [9], at most 0.06 µg/mL; in [10], 8 µg/mL; in the test on E. coli J53 Alone it was 0.25 µg/mL; in test [11], 0.5 µg/mL. Moreover, the MIC in [12] is 4 µg/mL; in test [13] it was 1 µg/mL; in test [14], 2 µg/mL; in [15], above 64 µg/mL; in test [16] it was 2 µg/mL. In the test with E. coli J53 Alone, the “Mimimum Inhibitory Concentrations, J53 Alone” value was 0.25 microgram/mL.

Take `CC(C)(O/N=C(\C(=O)N[C@@H]1C(=O)N2C(C(=O)O)=C(C=Cc3ccc(C[N+](C)(C)Cc4ccc(O)c(O)c4)cc3)CS[C@H]12)c1csc(N)n1)C(=O)O` (mixture of isomers) [Compound 426, N-(4-((E/Z)-2-((6R,7R)-7-((Z)-2-(2-aminothiazol-4-yl)-2-(((2-carboxypropan-2-yl)oxy)imino)acetamido)-2-carboxy-8-oxo-5-thia-1-azabicyclo[4.2.0]oct-2-en-3-yl)vinyl)benzyl)-1-(3,4-dihydroxyphenyl)-N,N-dimethylmethanaminium]: the MIC in [1] is 4 µg/mL; in test [2], 4 µg/mL; in test [3], 2 µg/mL; in test [4], 4 µg/mL; in [5], 64 µg/mL; in [6], 4 µg/mL. In addition, the MIC turned out to be 8 µg/mL in [7]; 0.5 µg/mL in test [8]; 0.25 µg/mL in [9]; 4 µg/mL in test [10]; 1 µg/mL in the test on E. coli J53 Alone; 0.5 µg/mL in test [11]. Also, the MIC in test [12] was 8 µg/mL; in test [13], 0.5 µg/mL; in test [14], 0.5 µg/mL; in test [15], above 64 µg/mL; in test [16], 8 µg/mL. For the same molecule, in the test on E. coli J53 Alone, the “Mimimum Inhibitory Concentrations, J53 Alone” value turned out to be 1 microgram/mL.

Take `CC(C)(O/N=C(\C(=O)N[C@@H]1C(=O)N2C(C(=O)O)=C(C=Cc3ccc(C[n+]4ccc(NC(=O)c5ccc(O)c(O)c5)cc4)cc3)CS[C@H]12)c1csc(N)n1)C(=O)O` (mixture of isomers) [Compound 427, 1-(4-((E/Z)-2-((6R,7R)-7-((Z)-2-(2-aminothiazol-4-yl)-2-(((2-carboxypropan-2-yl)oxy)imino)acetamido)-2-carboxy-8-oxo-5-thia-1-azabicyclo[4.2.0]oct-2-en-3-yl)vinyl)benzyl)-4-(3,4-dihydroxybenzamido)pyridin-1-ium]: the MIC in test [1] is 0.06 µg/mL; in test [2], 4 µg/mL; in test [3] it was at most 0.06 µg/mL; in test [4], 0.06 µg/mL; in [5] it was 0.25 µg/mL; in test [6] it was 0.5 µg/mL. The MIC was 4 µg/mL in test [7]; at most 0.06 µg/mL in [8]; at most 0.06 µg/mL in test [9]; 8 µg/mL in [10]; at most 0.06 µg/mL in the test with E. coli J53 Alone; 1 µg/mL in test [11]. In addition, the MIC in test [12] was 2 µg/mL; in [13], 1 µg/mL; in [14], 1 µg/mL; in test [15] it was above 64 µg/mL; in test [16], 1 µg/mL. Besides, the “Mimimum Inhibitory Concentrations, J53 Alone” value in the test on E. coli J53 Alone is recorded as at most 0.06 microgram/mL.

`CC(C)(O/N=C(\C(=O)N[C@@H]1C(=O)N2C(C(=O)O)=C(C=Cc3ccc(C[N+](C)(C)Cc4ccc(O)c(O)c4Cl)cc3)CS[C@H]12)c1csc(N)n1)C(=O)O` (mixture of isomers) [Compound 434, N-(4-((E/Z)-2-((6R,7R)-7-((Z)-2-(2-aminothiazol-4-yl)-2-(((2-carboxypropan-2-yl)oxy)imino)acetamido)-2-carboxy-8-oxo-5-thia-1-azabicyclo[4.2.0]oct-2-en-3-yl)vinyl)benzyl)-1-(2-chloro-3,4-dihydroxyphenyl)-N,N-dimethylmethanaminium]: the MIC stood at 4 µg/mL in [1]; 1 µg/mL in test [2]; 2 µg/mL in [3]; 8 µg/mL in test [4]; 16 µg/mL in test [5]; 4 µg/mL in [6]. Further, the MIC in test [7] stood at 8 µg/mL; in test [8], 0.5 µg/mL; in test [9], 2 µg/mL; in test [10] it was 8 µg/mL; with E. coli J53 Alone it was 0.25 µg/mL; in test [11], 1 µg/mL. In addition, the MIC in test [12] is 2 µg/mL; in test [13], 2 µg/mL; in test [14] it was 0.5 µg/mL; in [15] it was above 64 µg/mL; in test [16], 2 µg/mL. In addition, the “Mimimum Inhibitory Concentrations, J53 Alone” value in the test with E. coli J53 Alone came out at 0.25 microgram/mL.
